# From PubChem BioAssay (NCI)
#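 Each compound was tested at five concentrations against cells in 96-well plates for 48 hours. TGI: concentration producing complete growth inhibition.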
# Tested on: SNB-19 CNS
# Assay: DTP human tumour cell line panel, 48 h
row,SMILES,TGI
1,CN1CCOC(c2ccccc2)O1 (configuration not stated),> 100 µM
2,CCCNC(=S)NNC(=O)CSc1nc(-c2ccccc2)c(-c2ccccc2)[nH]1,> 100 µM
3,N#Cc1c2ccccc2cn1-c1ccc(F)cc1,> 100 µM
4,Cc1ccccc1N1C(=O)C2C=CC(n3[nH]c(=O)n(Cc4ccccc4)c3=O)CC2C1=O (configuration not stated),> 100 µM
5,COc1cc(NS(C)(=O)=O)ccc1Nc1c2ccccc2nc2c1[nH]c1ccc(NC3OC(CO)C(O)C(O)C3O)cc12 (configuration not stated),1.46 µM
6,S=c1sc2c(Cl)nc(Cl)nc2n1-c1ccccc1,> 100 µM
7,CN(C)CCC(=O)c1ccccc1,> 100 µM
8,CCOc1ccccc1NC(=O)C(=O)CC(=O)c1sc(Nc2nnc(-c3ccc(Cl)c(Cl)c3)o2)nc1C,> 100 µM

# Tested on: DLD-1 colon
# Assay: DTP human tumour cell line panel, 48 h
row,SMILES,TGI
1,CN1CCOC(c2ccccc2)O1 (configuration not stated),> 100 µM
2,CCCNC(=S)NNC(=O)CSc1nc(-c2ccccc2)c(-c2ccccc2)[nH]1,> 100 µM
3,N#Cc1c2ccccc2cn1-c1ccc(F)cc1,> 100 µM
4,Cc1ccccc1N1C(=O)C2C=CC(n3[nH]c(=O)n(Cc4ccccc4)c3=O)CC2C1=O (configuration not stated),> 100 µM
5,COc1cc(NS(C)(=O)=O)ccc1Nc1c2ccccc2nc2c1[nH]c1ccc(NC3OC(CO)C(O)C(O)C3O)cc12 (configuration not stated),1.93 µM
6,S=c1sc2c(Cl)nc(Cl)nc2n1-c1ccccc1,29.9 µM
7,NC(=O)C12CC3CC(CC(F)(C3)C1)C2,> 100 µM
8,CN(C)CCC(=O)c1ccccc1,41 µM
9,CCOc1ccccc1NC(=O)C(=O)CC(=O)c1sc(Nc2nnc(-c3ccc(Cl)c(Cl)c3)o2)nc1C,> 100 µM

# Tested on: KM20L2 colon
# Assay: DTP human tumour cell line panel, 48 h
row,SMILES,TGI
1,CN1CCOC(c2ccccc2)O1 (configuration not stated),> 100 µM
2,CCCNC(=S)NNC(=O)CSc1nc(-c2ccccc2)c(-c2ccccc2)[nH]1,> 100 µM
3,N#Cc1c2ccccc2cn1-c1ccc(F)cc1,> 100 µM
4,Cc1ccccc1N1C(=O)C2C=CC(n3[nH]c(=O)n(Cc4ccccc4)c3=O)CC2C1=O (configuration not stated),> 100 µM
5,COc1cc(NS(C)(=O)=O)ccc1Nc1c2ccccc2nc2c1[nH]c1ccc(NC3OC(CO)C(O)C(O)C3O)cc12 (configuration not stated),1.87 µM
6,S=c1sc2c(Cl)nc(Cl)nc2n1-c1ccccc1,> 100 µM
7,NC(=O)C12CC3CC(CC(F)(C3)C1)C2,> 100 µM
8,CN(C)CCC(=O)c1ccccc1,> 59.1 µM
9,CCOc1ccccc1NC(=O)C(=O)CC(=O)c1sc(Nc2nnc(-c3ccc(Cl)c(Cl)c3)o2)nc1C,> 100 µM

# Tested on: SNB-78 CNS
# Assay: DTP human tumour cell line panel, 48 h
row,SMILES,TGI
1,CN1CCOC(c2ccccc2)O1 (configuration not stated),> 100 µM
2,CCCNC(=S)NNC(=O)CSc1nc(-c2ccccc2)c(-c2ccccc2)[nH]1,> 100 µM
3,Cc1ccccc1N1C(=O)C2C=CC(n3[nH]c(=O)n(Cc4ccccc4)c3=O)CC2C1=O (configuration not stated),> 100 µM
4,COc1cc(NS(C)(=O)=O)ccc1Nc1c2ccccc2nc2c1[nH]c1ccc(NC3OC(CO)C(O)C(O)C3O)cc12 (configuration not stated),9.3 µM
5,S=c1sc2c(Cl)nc(Cl)nc2n1-c1ccccc1,> 100 µM
6,NC(=O)C12CC3CC(CC(F)(C3)C1)C2,> 100 µM
7,CN(C)CCC(=O)c1ccccc1,69 µM
8,CCOc1ccccc1NC(=O)C(=O)CC(=O)c1sc(Nc2nnc(-c3ccc(Cl)c(Cl)c3)o2)nc1C,> 100 µM

# Tested on: SR leukemia
# Assay: DTP human tumour cell line panel, 48 h
row,SMILES,TGI
1,CN1CCOC(c2ccccc2)O1 (configuration not stated),> 100 µM
2,CCCNC(=S)NNC(=O)CSc1nc(-c2ccccc2)c(-c2ccccc2)[nH]1,93.4 µM
3,COc1cc(NS(C)(=O)=O)ccc1Nc1c2ccccc2nc2c1[nH]c1ccc(NC3OC(CO)C(O)C(O)C3O)cc12 (configuration not stated),> 100 µM
4,S=c1sc2c(Cl)nc(Cl)nc2n1-c1ccccc1,55.1 µM
5,CN(C)CCC(=O)c1ccccc1,57.4 µM
6,CCOc1ccccc1NC(=O)C(=O)CC(=O)c1sc(Nc2nnc(-c3ccc(Cl)c(Cl)c3)o2)nc1C,> 100 µM

# Tested on: A549 NSCLC
# Assay: DTP human tumour cell line panel, 48 h
row,SMILES,TGI
1,CN1CCOC(c2ccccc2)O1 (configuration not stated),> 100 µM
2,CCCNC(=S)NNC(=O)CSc1nc(-c2ccccc2)c(-c2ccccc2)[nH]1,> 100 µM
3,N#Cc1c2ccccc2cn1-c1ccc(F)cc1,> 100 µM
4,Cc1ccccc1N1C(=O)C2C=CC(n3[nH]c(=O)n(Cc4ccccc4)c3=O)CC2C1=O (configuration not stated),> 100 µM
5,COc1cc(NS(C)(=O)=O)ccc1Nc1c2ccccc2nc2c1[nH]c1ccc(NC3OC(CO)C(O)C(O)C3O)cc12 (configuration not stated),0.235 µM
6,S=c1sc2c(Cl)nc(Cl)nc2n1-c1ccccc1,> 100 µM
7,NC(=O)C12CC3CC(CC(F)(C3)C1)C2,> 100 µM
8,CN(C)CCC(=O)c1ccccc1,> 82.1 µM
9,CCOc1ccccc1NC(=O)C(=O)CC(=O)c1sc(Nc2nnc(-c3ccc(Cl)c(Cl)c3)o2)nc1C,> 100 µM

# Tested on: DMS 273 small cell lung
# Assay: DTP human tumour cell line panel, 48 h
row,SMILES,TGI
1,CN1CCOC(c2ccccc2)O1 (configuration not stated),> 100 µM
2,CCCNC(=S)NNC(=O)CSc1nc(-c2ccccc2)c(-c2ccccc2)[nH]1,> 100 µM
3,Cc1ccccc1N1C(=O)C2C=CC(n3[nH]c(=O)n(Cc4ccccc4)c3=O)CC2C1=O (configuration not stated),> 100 µM
4,COc1cc(NS(C)(=O)=O)ccc1Nc1c2ccccc2nc2c1[nH]c1ccc(NC3OC(CO)C(O)C(O)C3O)cc12 (configuration not stated),0.261 µM
5,S=c1sc2c(Cl)nc(Cl)nc2n1-c1ccccc1,> 100 µM
6,NC(=O)C12CC3CC(CC(F)(C3)C1)C2,> 100 µM
7,CN(C)CCC(=O)c1ccccc1,> 100 µM
8,CCOc1ccccc1NC(=O)C(=O)CC(=O)c1sc(Nc2nnc(-c3ccc(Cl)c(Cl)c3)o2)nc1C,> 100 µM

# Tested on: LXFL 529 NSCLC
# Assay: DTP human tumour cell line panel, 48 h
row,SMILES,TGI
1,CN1CCOC(c2ccccc2)O1 (configuration not stated),> 100 µM
2,CCCNC(=S)NNC(=O)CSc1nc(-c2ccccc2)c(-c2ccccc2)[nH]1,> 100 µM
3,N#Cc1c2ccccc2cn1-c1ccc(F)cc1,> 100 µM
4,Cc1ccccc1N1C(=O)C2C=CC(n3[nH]c(=O)n(Cc4ccccc4)c3=O)CC2C1=O (configuration not stated),> 100 µM
5,COc1cc(NS(C)(=O)=O)ccc1Nc1c2ccccc2nc2c1[nH]c1ccc(NC3OC(CO)C(O)C(O)C3O)cc12 (configuration not stated),2.46 µM
6,S=c1sc2c(Cl)nc(Cl)nc2n1-c1ccccc1,31.7 µM
7,NC(=O)C12CC3CC(CC(F)(C3)C1)C2,> 100 µM
8,CN(C)CCC(=O)c1ccccc1,44.7 µM
9,CCOc1ccccc1NC(=O)C(=O)CC(=O)c1sc(Nc2nnc(-c3ccc(Cl)c(Cl)c3)o2)nc1C,> 100 µM

# Tested on: RXF-631 renal
# Assay: DTP human tumour cell line panel, 48 h
row,SMILES,TGI
1,CN1CCOC(c2ccccc2)O1 (configuration not stated),> 100 µM

# Tested on: XF 498 CNS
# Assay: DTP human tumour cell line panel, 48 h
row,SMILES,TGI
1,CCCNC(=S)NNC(=O)CSc1nc(-c2ccccc2)c(-c2ccccc2)[nH]1,> 100 µM
2,N#Cc1c2ccccc2cn1-c1ccc(F)cc1,> 100 µM
3,Cc1ccccc1N1C(=O)C2C=CC(n3[nH]c(=O)n(Cc4ccccc4)c3=O)CC2C1=O (configuration not stated),> 100 µM
4,COc1cc(NS(C)(=O)=O)ccc1Nc1c2ccccc2nc2c1[nH]c1ccc(NC3OC(CO)C(O)C(O)C3O)cc12 (configuration not stated),0.832 µM
5,S=c1sc2c(Cl)nc(Cl)nc2n1-c1ccccc1,> 100 µM
6,NC(=O)C12CC3CC(CC(F)(C3)C1)C2,> 100 µM
7,CN(C)CCC(=O)c1ccccc1,38.5 µM

# Tested on: HOP-18 NSCLC
# Assay: DTP human tumour cell line panel, 48 h
row,SMILES,TGI
1,CN1CCOC(c2ccccc2)O1 (configuration not stated),> 100 µM
2,Cc1ccccc1N1C(=O)C2C=CC(n3[nH]c(=O)n(Cc4ccccc4)c3=O)CC2C1=O (configuration not stated),> 100 µM
3,COc1cc(NS(C)(=O)=O)ccc1Nc1c2ccccc2nc2c1[nH]c1ccc(NC3OC(CO)C(O)C(O)C3O)cc12 (configuration not stated),1.65 µM
4,S=c1sc2c(Cl)nc(Cl)nc2n1-c1ccccc1,> 100 µM
5,CN(C)CCC(=O)c1ccccc1,> 68.9 µM
6,CCOc1ccccc1NC(=O)C(=O)CC(=O)c1sc(Nc2nnc(-c3ccc(Cl)c(Cl)c3)o2)nc1C,> 100 µM

# Tested on: M19-MEL melanoma
# Assay: DTP human tumour cell line panel, 48 h
row,SMILES,TGI
1,CN1CCOC(c2ccccc2)O1 (configuration not stated),> 100 µM
2,CCCNC(=S)NNC(=O)CSc1nc(-c2ccccc2)c(-c2ccccc2)[nH]1,> 100 µM
3,N#Cc1c2ccccc2cn1-c1ccc(F)cc1,> 100 µM
4,Cc1ccccc1N1C(=O)C2C=CC(n3[nH]c(=O)n(Cc4ccccc4)c3=O)CC2C1=O (configuration not stated),> 100 µM
5,COc1cc(NS(C)(=O)=O)ccc1Nc1c2ccccc2nc2c1[nH]c1ccc(NC3OC(CO)C(O)C(O)C3O)cc12 (configuration not stated),1.75 µM
6,S=c1sc2c(Cl)nc(Cl)nc2n1-c1ccccc1,29.9 µM
7,NC(=O)C12CC3CC(CC(F)(C3)C1)C2,> 100 µM
8,CN(C)CCC(=O)c1ccccc1,52.7 µM
9,CCOc1ccccc1NC(=O)C(=O)CC(=O)c1sc(Nc2nnc(-c3ccc(Cl)c(Cl)c3)o2)nc1C,> 100 µM

# Tested on: SF-539 CNS
# Assay: DTP human tumour cell line panel, 48 h
row,SMILES,TGI
1,CN1CCOC(c2ccccc2)O1 (configuration not stated),> 100 µM
2,CCCNC(=S)NNC(=O)CSc1nc(-c2ccccc2)c(-c2ccccc2)[nH]1,> 100 µM
3,N#Cc1c2ccccc2cn1-c1ccc(F)cc1,> 100 µM
4,Cc1ccccc1N1C(=O)C2C=CC(n3[nH]c(=O)n(Cc4ccccc4)c3=O)CC2C1=O (configuration not stated),> 100 µM
5,COc1cc(NS(C)(=O)=O)ccc1Nc1c2ccccc2nc2c1[nH]c1ccc(NC3OC(CO)C(O)C(O)C3O)cc12 (configuration not stated),0.0405 µM
6,S=c1sc2c(Cl)nc(Cl)nc2n1-c1ccccc1,> 100 µM
7,NC(=O)C12CC3CC(CC(F)(C3)C1)C2,> 100 µM
8,CN(C)CCC(=O)c1ccccc1,> 70.3 µM
9,CCOc1ccccc1NC(=O)C(=O)CC(=O)c1sc(Nc2nnc(-c3ccc(Cl)c(Cl)c3)o2)nc1C,> 100 µM

# Tested on: DMS 114 small cell lung
# Assay: DTP human tumour cell line panel, 48 h
row,SMILES,TGI
1,CN1CCOC(c2ccccc2)O1 (configuration not stated),> 100 µM
2,CCCNC(=S)NNC(=O)CSc1nc(-c2ccccc2)c(-c2ccccc2)[nH]1,> 100 µM
3,N#Cc1c2ccccc2cn1-c1ccc(F)cc1,> 100 µM
4,Cc1ccccc1N1C(=O)C2C=CC(n3[nH]c(=O)n(Cc4ccccc4)c3=O)CC2C1=O (configuration not stated),> 100 µM
5,COc1cc(NS(C)(=O)=O)ccc1Nc1c2ccccc2nc2c1[nH]c1ccc(NC3OC(CO)C(O)C(O)C3O)cc12 (configuration not stated),0.0784 µM
6,S=c1sc2c(Cl)nc(Cl)nc2n1-c1ccccc1,27.3 µM
7,NC(=O)C12CC3CC(CC(F)(C3)C1)C2,> 100 µM
8,CN(C)CCC(=O)c1ccccc1,> 56.2 µM
9,CCOc1ccccc1NC(=O)C(=O)CC(=O)c1sc(Nc2nnc(-c3ccc(Cl)c(Cl)c3)o2)nc1C,> 100 µM
